In ChEMBL document CHEMBL6178013, “Ferroptosis of Cancer Cells via Tubulin Degradation and Mitochondrial Dysfunction: A Novel Mechanism of Anticancer Effect for Small-Molecule Anion Transporters” (J Med Chem, 2025):
≈ marks a conversion by molar mass, not a printed value. Calls of active or inactive are those of the source. The calls are words filed in the database; no cut-off is given here.

How the values were obtained:
Tubulin (Homo sapiens) = Tubulin (Homo sapiens) (UniProt P68371+Q9H4B7+P0DPH7+P68366+Q13509+Q71U36+P04350+Q3ZCM7+P07437+P68363+Q9BQE3+Q6PEY2+Q13885+Q9BVA1+Q9BUF5); assay: Induction of tubulin degradation in human HeLa cells assessed as disruption of tubulin network at 10 uM incubated for 16 hrs by immunofluorescence based analysis; assay type: cell-based
HeLa [1] = assay: In vivo induction of ferroptosis in human HeLa cells xenografted in male Balb/C nude mouse assessed as increase in cleaved caspase-3 level administered intraperitoneally on every 2 days measured after 18 days by immunoblotting analysis; assay type: functional, organism-based; conditions: dose 10-20 mg/kg, route ip, time 18.0 day
Chloride [2] = assay: Binding affinity to chloride anions in human HeLa cells assessed as increase in chloride influx at 1 uM measured after 30 to 60 mins by flow cytometry; assay type: cell-based; conditions: time 30-60 min
HeLa [3] = assay: Induction of mitochondrial membrane permeability in human HeLa cells assessed as green fluorescence at 0.1 uM incubated for 24 hrs by JC-1 staining based analysis (reference value: 1.5 %); assay type: functional
HeLa [4] = assay: Antitumor activity against human HeLa cells xenografted in male Balb/C nude mouse assessed as reduction in tumor weight at 10 mg/kg, ip administered on every 2 days measured after 18 days relative to control; assay type: functional; parameters: scale not given: the % may be the effect or the level left; conditions: time 18 day
HeLa [5] = assay: Induction of lipid peroxidation in human HeLa cells assessed as increase in ROS generation incubated for 24 hrs by flow cytometry; assay type: functional, cell-based; conditions: dose 0.1-1 µM
HeLa [6] = assay: Induction of mitochondrial membrane permeability in human HeLa cells assessed as red fluorescence at 0.5 uM incubated for 24 hrs by JC-1 staining based analysis (reference value: 98.5 %); assay type: functional
A549 = assay: Cytotoxicity against human A549 cells incubated for 48 hrs by MTT assay; assay type: functional, cell-based; conditions: A549, 48 h
[7] = AUC (0 to t) in male CD-1 mouse at 1 mg/kg, ip measured for 0.083 to 48 hrs by HPLC/MS/MS analysis; assay type: ADME, organism-based; conditions: in vivo, time 0.083-48 hrs
[8] = Tmax in male CD-1 mouse at 1 mg/kg, iv measured for 0.083 to 48 hrs by HPLC/MS/MS analysis; assay type: ADME, organism-based; conditions: in vivo, time 0.083-48 hrs
HeLa [9] = assay: In vivo induction of ferroptosis in human HeLa cells xenografted in male Balb/C nude mouse assessed as increase in cleaved PARP level administered intraperitoneally on every 2 days measured after 18 days by immunoblotting analysis; assay type: functional, organism-based; conditions: dose 10-20 mg/kg, route ip, time 18.0 day
HeLa [10] = assay: Induction of lipid peroxidation in human HeLa cells assessed as increase in MDA level incubated for 12 hrs by absorbance based assay; assay type: functional, cell-based; conditions: dose 0.1-1 µM
[11] = MRT (0 to infinity) in male CD-1 mouse at 1 mg/kg, iv measured for 0.083 to 48 hrs by HPLC/MS/MS analysis; assay type: ADME, organism-based; conditions: in vivo, time 0.083-48 hrs
Chloride [12] = assay: Binding affinity to chloride anions assessed as chloride efflux in egg-yolk L-alpha-phosphatidylcholine liposome model harboring intravesicular NaCl/extravesicular Na2SO4
[13] = Half life in male CD-1 mouse at 1 mg/kg, ip measured for 0.083 to 48 hrs by HPLC/MS/MS analysis; assay type: ADME, organism-based; conditions: in vivo, time 0.083-48 hrs
HeLa [14] = assay: Induction of lipid peroxidation in human HeLa cells assessed as increase in Fe2+ level incubated for 12 hrs by absorbance based assay; assay type: functional, cell-based; conditions: dose 0.1-1 µM
[15] = Toxicity in male Balb/C nude mouse xenografted with human HeLa cells assessed as abnormalities in kidney at 10 to 20 mg/kg, ip administered on every 2 days measured after 18 days by H and E staining based analysis; assay type: organism-based; conditions: in vivo, 432 h, dose 10-20 mg/kg, time 18 day
HeLa [16] = assay: Induction of beta III-tubulin degradation in human HeLa cells incubated for 48 hrs by immunoblotting analysis; assay type: cell-based; conditions: dose 0.1-1 µM
[17] = Tmax in male CD-1 mouse at 1 mg/kg, ip measured for 0.083 to 48 hrs by HPLC/MS/MS analysis; assay type: ADME, organism-based; conditions: in vivo, time 0.083-48 hrs
HeLa [18] = assay: Induction of cell cycle arrest in human HeLa cells assessed as accumulation of cells at S phase at 0.5 uM incubated for 24 hrs by PI staining based flow cytometry relative to control; assay type: functional
HeLa [19] = assay: Antitumor activity against human HeLa cells xenografted in male Balb/C nude mouse assessed as nuclear fragmentation at 10 to 20 mg/kg, ip administered on every 2 days measured after 18 days by H and E staining based analysis; assay type: functional, organism-based; conditions: dose 10-20 mg/kg, time 18.0 day
HeLa [20] = assay: Induction of mitochondrial membrane permeability in human HeLa cells assessed as green fluorescence at 0.5 uM incubated for 24 hrs by JC-1 staining based analysis (reference value: 1.5 %); assay type: functional
[21] = Cmax in male CD-1 mouse at 1 mg/kg, iv measured for 0.083 to 48 hrs by HPLC/MS/MS analysis; assay type: ADME, organism-based; conditions: in vivo, time 0.083-48 hrs
[22] = biological target: T1, Tubulin beta (Homo sapiens) (UniProt P68371+Q9H4B7+Q13509+P04350+Q3ZCM7+P07437+Q13885+Q9BVA1+Q9BUF5+A6NNZ2); assay: Induction of beta-tubulin degradation in human HeLa cells incubated for 48 hrs by immunoblotting analysis; assay type: cell-based; conditions: dose 0.1-1 µM
Chloride [23] = assay: Binding affinity to chloride anions in human HeLa cells assessed as decrease in orange fluorescence in cytoplasm at 5 uM incubated for 6 hrs by AO staining based analysis relative to control; assay type: cell-based; parameters: scale not given: the % may be the effect or the level left
HeLa [24] = assay: Induction of mitochondrial membrane permeability in human HeLa cells assessed as red fluorescence at 1 uM incubated for 24 hrs by JC-1 staining based analysis (reference value: 98.5 %); assay type: functional
[25] = AUC (0 to infinity) in male CD-1 mouse at 1 mg/kg, ip measured for 0.083 to 48 hrs by HPLC/MS/MS analysis; assay type: ADME, organism-based; conditions: in vivo, time 0.083-48 hrs
[26] = Aqueous solubility of compound; assay type: physicochemical
HeLa [27] = assay: Antitumor activity against human HeLa cells xenografted in male Balb/C nude mouse assessed as average tumor size at 20 mg/kg, ip administered on every 2 days measured after 18 days (reference value: 1995.1 mm3); assay type: functional; conditions: time 18 day
MCF7 = assay: Cytotoxicity against human MCF7 cells incubated for 48 hrs by MTT assay; assay type: functional, cell-based; conditions: MCF7, 48 h
[28] = Toxicity in male Balb/C nude mouse xenografted with human HeLa cells assessed as abnormalities in brain at 10 to 20 mg/kg, ip administered on every 2 days measured after 18 days by H and E staining based analysis; assay type: organism-based; conditions: in vivo, 432 h, dose 10-20 mg/kg, time 18 day
Chloride [29] = assay: Binding affinity to chloride anions in human HeLa cells assessed as decrease in red fluorescence in cytoplasm at 5 uM incubated for 1.5 hrs by MR-(RR)2 staining based analysis; assay type: cell-based
[30] = AUC (0 to infinity) in male CD-1 mouse at 1 mg/kg, iv measured for 0.083 to 48 hrs by HPLC/MS/MS analysis; assay type: ADME, organism-based; conditions: in vivo, time 0.083-48 hrs
[31] = Oral bioavailability in male CD-1 mouse at 1 mg/kg measured for 0.083 to 48 hrs by HPLC/MS/MS analysis; assay type: ADME, organism-based; conditions: in vivo, time 0.083-48 hrs
[32] = biological target: T1, Tubulin beta (Homo sapiens); assay: Induction of beta-tubulin degradation in human HeLa cells at 1 uM preincubated with MG132 followed by compound addition measured after 24 hrs by immunoblotting analysis; assay type: cell-based

Fc1cc(-c2nc3c(C(F)(F)F)cc(C(F)(F)F)cc3[nH]2)cc(-c2nc3c(C(F)(F)F)cc(C(F)(F)F)cc3[nH]2)c1
Activity (Tubulin (Homo sapiens)): Active | Activity (HeLa [1]): Dose-dependent-effect | Activity (Chloride [2]): Active | Activity (HeLa [3]): 9.5% | Activity (HeLa [4]): 57% | Activity (HeLa [5]): Dose-dependent-effect | Activity (HeLa [6]): 55.1% | IC50 (A549): 1680 nM | AUC(0-t) [7]: 3850 ng·h/mL | Tmax [8]: 4.8 min | Activity (HeLa [9]): Dose-dependent-effect | Activity (HeLa [10]): Dose-dependent-effect | MRT inf [11]: 3.14 h | Activity (Chloride [12]): inactive | half-life [13]: 19.9 h | Activity (HeLa [14]): Dose-dependent-effect | Activity [15]: Non-toxic | Activity (HeLa [16]): Dose-dependent-effect | Tmax [17]: 3.5 h | Activity (HeLa [18]): 36% | Activity (HeLa [19]): Active | Activity (HeLa [20]): 44.9% | Cmax [21]: 22700 ng/mL | Activity [22]: Dose-dependent-effect | Activity (Chloride [23]): 100% | Activity (HeLa [24]): 33.2% | AUC(0-inf) [25]: 4610 ng·h/mL | solubility [26]: 200 µg/mL (≈ 333 µM) | Activity (HeLa [27]): 626.1 mm3 | IC50 (MCF7): 770 nM | Activity [28]: Non-toxic | Activity (Chloride [29]): Active; The Result Reveals That Compound Can Alkalize Lysosomes | AUC(0-inf) [30]: 17800 ng·h/mL | bioavailability [31]: 22% | Activity [32]: inactive
